{
  "source": "paper PMC9894920",
  "about": "“Development of an improved and specific inhibitor of NADPH oxidase 2 to treat traumatic brain injury” (Redox Biology, 2023)",
  "assay_type_in_all_cases": "cell-based",
  "key": {"[1]": {"tested_on": "NOX1 reconstituted with p47phox and p67phox", "assay": "NOX1 reconstituted with cytosolic phox proteins (p47phox and p67phox), data not shown", "description": "Another experiment (data not shown) examined the potency of NCATS-SM7270 against NOX1 and NOX3 reconstituted with cytosolic phox proteins (p47phox and p67phox)."}, "[2]": {"target": "T1, NOX2 (Homo sapiens, UniProt P04839)", "T1 sequence (P04839 2-570 limits assumed)": "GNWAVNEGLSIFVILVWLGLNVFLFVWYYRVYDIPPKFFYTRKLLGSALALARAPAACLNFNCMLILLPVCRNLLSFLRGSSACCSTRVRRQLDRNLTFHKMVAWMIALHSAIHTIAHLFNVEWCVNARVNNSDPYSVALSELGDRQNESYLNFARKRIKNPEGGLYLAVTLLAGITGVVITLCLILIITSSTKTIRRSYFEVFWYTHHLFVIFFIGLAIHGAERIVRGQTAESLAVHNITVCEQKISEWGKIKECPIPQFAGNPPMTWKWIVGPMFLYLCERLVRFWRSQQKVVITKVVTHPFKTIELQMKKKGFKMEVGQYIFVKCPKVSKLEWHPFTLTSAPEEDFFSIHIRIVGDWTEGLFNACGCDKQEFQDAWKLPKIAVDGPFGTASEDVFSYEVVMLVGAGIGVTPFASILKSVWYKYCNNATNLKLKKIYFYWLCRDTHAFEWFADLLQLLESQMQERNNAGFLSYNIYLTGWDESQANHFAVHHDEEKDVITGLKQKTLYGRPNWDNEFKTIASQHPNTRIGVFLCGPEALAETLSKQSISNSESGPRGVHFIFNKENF", "T1 sequence (P13498 2-195 partner limits assumed)": "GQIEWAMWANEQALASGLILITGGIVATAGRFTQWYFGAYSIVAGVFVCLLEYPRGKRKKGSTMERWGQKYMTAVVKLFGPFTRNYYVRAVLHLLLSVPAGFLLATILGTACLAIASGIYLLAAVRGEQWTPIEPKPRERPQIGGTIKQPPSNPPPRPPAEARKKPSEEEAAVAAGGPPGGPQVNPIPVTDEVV", "assay": "Expi293 whole cell assay, NOX2 overexpression", "conditions": "Expi293 cells expressing NOX2", "experimental": "Given concerns about previous assays for specific NOX family members [45] we here report the first use of the Expi293 Expression System (Thermo Scientific) to overexpress NOX1, 2, 3, 4, and 5 in excess of any endogenous NOX proteins present in these cells. Transfections were performed following the manufacturer's instructions using the plasmids for each NOX as described in Supplemental Table 2 except that the enhancer solution provided with the Expi293 system was not used because it promoted enzyme activation.\nAfter the times indicated in Supplemental Table 2, cells were washed and 50,000 added per well of a white 96-well plate (Greiner) along with 50 μM Luminol and 2.5 U horseradish peroxidase/mL in a volume of 90 μl for NOX1, NOX2, and NOX5. Inhibitors or vehicle controls were added and cells were incubated for 20 min at 37 °C prior to activation with the indicated stimuli. […] Chemiluminescence was measured every 2 min for 1 s per well at 37 °C in a Varioscan Multimode reader. AUC data were analyzed using GraphPad Prism using non-linear regression analysis after expressing relative to control alone (maximum ROS production)."}, "[3]": {"target": "T1, NOX2", "assay": "NOX2 activity in primary human granulocytes (PMN), luminol chemiluminescence", "design": "When tested against NOX2 in primary human neutrophils; endogenous in cells; host or cells: primary human granulocytes (PMN) from donor blood", "description": "Human blood was obtained after informed consent by the Department of Transfusion Medicine (NIH Clinical Center) and provided as de-identified specimens. Human granulocytes were isolated using Percoll density fractionation as described and NOX2 activity was assessed in white polypropylene flat bottom 96 well plates following 15 min of preincubation at 37 °C with compounds or vehicle controls using 50 μM luminol as a chemiluminescence enhancer in an assay volume of 100 μl RPMI1640 with 1.1 × 10^5 cells/well in Varioskan Lux luminometer for 30 cycles of 1 s per well (approximately 1 h)."}, "[4]": {"target": "T2, NOX3 (Homo sapiens, UniProt Q9HBY0)", "T2 construct": "expressed in transfected cells; host or cells: Expi293 (human embryonic kidney) cells, transient transfection", "T2 sequence (Q9HBY0 1-568)": "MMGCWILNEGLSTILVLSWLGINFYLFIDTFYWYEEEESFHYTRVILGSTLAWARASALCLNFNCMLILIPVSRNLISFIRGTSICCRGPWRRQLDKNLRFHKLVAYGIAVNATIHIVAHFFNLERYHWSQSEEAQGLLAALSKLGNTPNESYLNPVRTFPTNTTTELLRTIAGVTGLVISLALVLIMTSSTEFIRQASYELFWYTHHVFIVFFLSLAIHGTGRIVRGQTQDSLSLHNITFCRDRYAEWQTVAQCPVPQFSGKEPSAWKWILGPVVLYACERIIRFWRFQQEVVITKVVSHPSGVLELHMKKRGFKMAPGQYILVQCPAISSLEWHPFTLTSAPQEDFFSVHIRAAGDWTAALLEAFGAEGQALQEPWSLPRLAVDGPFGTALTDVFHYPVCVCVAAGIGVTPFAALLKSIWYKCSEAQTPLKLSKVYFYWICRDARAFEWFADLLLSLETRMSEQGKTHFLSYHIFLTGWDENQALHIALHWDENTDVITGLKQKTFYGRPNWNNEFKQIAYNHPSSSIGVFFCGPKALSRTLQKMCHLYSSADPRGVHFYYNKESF", "T2 sequence (P13498 2-195 partner limits assumed)": "T1 sequence (P13498 2-195 partner limits assumed)", "assay": "Expi293 whole cell assay, NOX3 overexpression", "conditions": "doses 100x higher than GSK2795039", "description": "Given concerns about previous assays for specific NOX family members we here report the first use of the Expi293 Expression System (Thermo Scientific) to overexpress NOX1, 2, 3, 4, and 5 in excess of any endogenous NOX proteins present in these cells. Transfections were performed following the manufacturer's instructions using the plasmids for each NOX as described in Supplemental Table 2 except that the enhancer solution provided with the Expi293 system was not used because it promoted enzyme activation.\nAfter the times indicated in Supplemental Table 2, cells were washed and 50,000 added per well of a white 96-well plate (Greiner) along with 50 μM Luminol and 2.5 U horseradish peroxidase/mL in a volume of 90 μl for NOX1, NOX2, and NOX5. Inhibitors or vehicle controls were added and cells were incubated for 20 min at 37 °C prior to activation with the indicated stimuli. For NOX3 and NOX4 (constitutively active), cells were incubated with inhibitor or vehicle control prior to the addition of luminol and HRP. Chemiluminescence was measured every 2 min for 1 s per well at 37 °C in a Varioscan Multimode reader. AUC data were analyzed using GraphPad Prism using non-linear regression analysis after expressing relative to control alone (maximum ROS production)."}},
  "note": "Where two headings read alike, the source gives them in different places.",
  "data": [
    {"compound": "Cn1ccc(S(=O)(=O)Nc2ccnc3c2c(-c2ccc4ccn(C)c4c2)cn3C2CC2)n1", "note": "[NCATS-SM7270, N-(1-cyclopropyl-3-(1-methyl-1H-indol-6-yl)-1H-pyrrolo [2,3-b]pyridin-4-yl)-1-methyl-1H-pyrazole-3-sulfonamide]", "values": [
      {"measurement": "dose needed to observe inhibition of NOX1 versus NOX2", "setting": "[1]", "value": "~10", "unit": "fold"},
      {"measurement": "improvement in potency toward NOX2 compared with GSK2795039", "setting": "[2]", "value": 2, "unit": "fold"},
      {"measurement": "IC50", "setting": "[3]; mean of 6 donors ± S.D., read-out: IC50 against NOX2 in primary human neutrophils", "value": "4.09 ± 1", "unit": "µM"},
      {"measurement": "IC50", "setting": "[3]; mean ± SD, n in cell, read-out: NOX-2 IC50 from PMN", "value": 2.15, "unit": "µM"},
      {"measurement": "activity against NOX3", "setting": "[4]", "value": "no detectable activity"}
    ]}
  ]
}
